Like-named read-outs stand apart in the source and are kept apart here.
Biological target: T1, PTP1B (Homo sapiens, UniProt P18031)
T1 sequence (P18031 1-435): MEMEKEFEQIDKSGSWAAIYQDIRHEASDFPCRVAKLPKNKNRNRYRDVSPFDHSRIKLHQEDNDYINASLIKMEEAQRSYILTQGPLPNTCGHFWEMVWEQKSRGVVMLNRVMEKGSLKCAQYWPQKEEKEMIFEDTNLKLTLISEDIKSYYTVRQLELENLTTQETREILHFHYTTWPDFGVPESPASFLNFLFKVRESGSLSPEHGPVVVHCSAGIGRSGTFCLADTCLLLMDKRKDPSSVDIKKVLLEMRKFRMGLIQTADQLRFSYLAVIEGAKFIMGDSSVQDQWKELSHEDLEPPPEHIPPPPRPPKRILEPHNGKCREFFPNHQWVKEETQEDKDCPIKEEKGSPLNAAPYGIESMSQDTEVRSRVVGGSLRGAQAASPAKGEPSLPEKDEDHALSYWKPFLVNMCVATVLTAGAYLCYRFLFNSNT
Assay: PTP1B inhibition assay (hydrolysis of p-nitrophenyl phosphate, 96-well plate)
Procedure: PTP1B activity was measured as the rate of hydrolysis of p-nitrophenyl phosphate (pNPP) in a 96-well microtiter plate format [13]. […] Each experiment was performed in triplicate, and IC50 data were derived from three independent experiments.

## 2-carboxymethyl-4-(3′-hydroxybutyl)furan [Compound 5]
read-out: PTP1B inhibitory activity IC50, in vitro, pNPP substrate, triplicate, three independent experiments
  IC50: > 1000 µM

## CCC(C)CC(C)C=C(C)C=CC=CC=C(C)C(O)=C1C(=O)NC(Cc2ccc(O)cc2)C1=O (centres unmarked) [Compound 1, fumosorinone A]
  IC50: 3.24 ± 0.37 µM

## C[C@@H]1CCC(=O)C[C@H](O)[C@@H](O)CC(=O)O1 [Compound 2, Cepharosporolides C]
  IC50: > 1000 µM

## C[C@@H]1CC[C@]2(C[C@@H]3OC(=O)C[C@@H]3O2)O1 [Compound 3, Cepharosporolides E]
  IC50: > 1000 µM

## CC1CCC2(CC3OC(=O)CC3O2)O1 (centres unmarked) [Compound 4, Cepharosporolides F]
  IC50: > 1000 µM

— paper PMC6149825, “PTP1B Inhibitors from the Entomogenous Fungi Isaria fumosorosea” (Molecules : A Journal of Synthetic Chemistry and Natural …, 2017)
